Results published in US12037583B2, “Compositions and methods for immunooncology” (Novartis AG, priority 2015, dated 2024).

test system: PDCD1; assay: NGS editing of PDCD1 by dgRNA in HEK cells stably expressing Cas9; type: cell-based, human; details: at least 3 experiments;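 also: dgRNA lipofected into Cas9-expressing HEK cells, lysed after 24 h, target amplicon sequenced, editing = reads carrying insertions or deletions as percent of all reads including wild type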

Row | Substance | HEK (NGS) % Editing Mean
1 | CR000858: dgRNA targeting domain to PDCD1 (guide CAGCUUGUCCGUCUGGUUGC; targeting domain within dual guide RNA, chemistry not given here, further chemistry not given here; listed as Homo sapiens) | 16%
2 | CR000863: dgRNA targeting domain to PDCD1 (guide CCGGGCUGGCUGCGGUCCUC; targeting domain within dual guide RNA, chemistry not given here, further chemistry not given here; listed as Homo sapiens) | 40%
3 | CR000864: dgRNA targeting domain to PDCD1 (guide CCCGAGGACCGCAGCCAGCC; targeting domain within dual guide RNA, chemistry not given here, further chemistry not given here; listed as Homo sapiens) | 7%
4 | CR000865: dgRNA targeting domain to PDCD1 (guide GCCGGGCUGGCUGCGGUCCU; targeting domain within dual guide RNA, chemistry not given here, further chemistry not given here; listed as Homo sapiens) | 4%
5 | CR000866: dgRNA targeting domain to PDCD1 (guide CGGAAGCGGCAGUCCUGGCC; targeting domain within dual guide RNA, chemistry not given here, further chemistry not given here; listed as Homo sapiens) | 4%
6 | CR000867: dgRNA targeting domain to PDCD1 (guide ACGGAAGCGGCAGUCCUGGC; targeting domain within dual guide RNA, chemistry not given here, further chemistry not given here; listed as Homo sapiens) | 24%
7 | CR000868: gRNA targeting domain to PDCD1, UGACACGGAAGCGGCAGUCC (SEQ ID NO: 5764) (targeting domain within guide RNA, chemistry not given here, further chemistry not given here; listed as Homo sapiens) | 47%
8 | CR000869: dgRNA targeting domain to PDCD1 (guide GCAGUUGUGUGACACGGAAG; targeting domain within dual guide RNA, chemistry not given here, further chemistry not given here; listed as Homo sapiens) | 55%
9 | CR000870: dgRNA targeting domain to PDCD1 (guide CGUGUCACACAACUGCCCAA; targeting domain within dual guide RNA, chemistry not given here, further chemistry not given here; listed as Homo sapiens) | 66%
10 | CR000871: dgRNA targeting domain to PDCD1 (guide GUGUCACACAACUGCCCAAC; targeting domain within dual guide RNA, chemistry not given here, further chemistry not given here; listed as Homo sapiens) | 57%
11 | CR000872: dgRNA targeting domain to PDCD1 (guide AUGUGGAAGUCACGCCCGUU; targeting domain within dual guide RNA, chemistry not given here, further chemistry not given here; listed as Homo sapiens) | 26%
12 | CR000874: dgRNA targeting domain to PDCD1 (guide GCGUGACUUCCACAUGAGCG; targeting domain within dual guide RNA, chemistry not given here, further chemistry not given here; listed as Homo sapiens) | 47%
13 | CR000875: dgRNA targeting domain to PDCD1 (guide ACUUCCACAUGAGCGUGGUC; targeting domain within dual guide RNA, chemistry not given here, further chemistry not given here; listed as Homo sapiens) | 6%
14 | CR000877: dgRNA targeting domain to PDCD1 (guide GGGCCCUGACCACGCUCAUG; targeting domain within dual guide RNA, chemistry not given here, further chemistry not given here; listed as Homo sapiens) | 5%
15 | CR000878: dgRNA targeting domain to PDCD1 (guide ACAUGAGCGUGGUCAGGGCC; targeting domain within dual guide RNA, chemistry not given here, further chemistry not given here; listed as Homo sapiens) | 1%
16 | CR000879: dgRNA targeting domain to PDCD1 (guide AGGGCCCGGCGCAAUGACAG; targeting domain within dual guide RNA, chemistry not given here, further chemistry not given here; listed as Homo sapiens) | 68%
17 | CR000880: dgRNA targeting domain to PDCD1 (guide GGUGCCGCUGUCAUUGCGCC; targeting domain within dual guide RNA, chemistry not given here, further chemistry not given here; listed as Homo sapiens) | 10%
18 | CR000881: gRNA targeting domain to PDCD1, AGGUGCCGCUGUCAUUGCGC (SEQ ID NO: 5777) (targeting domain within guide RNA, chemistry not given here, further chemistry not given here; listed as Homo sapiens) | 21%
19 | CR000882: dgRNA targeting domain to PDCD1 (guide GACAGCGGCACCUACCUCUG; targeting domain within dual guide RNA, chemistry not given here, further chemistry not given here; listed as Homo sapiens) | 50%
20 | CR000883: dgRNA targeting domain to PDCD1 (guide ACAGCGGCACCUACCUCUGU; targeting domain within dual guide RNA, chemistry not given here, further chemistry not given here; listed as Homo sapiens) | 9%
21 | CR000884: dgRNA targeting domain to PDCD1 (guide CCAGGGAGAUGGCCCCACAG; targeting domain within dual guide RNA, chemistry not given here, further chemistry not given here; listed as Homo sapiens) | 59%
22 | CR000885: dgRNA targeting domain to PDCD1 (guide GAUCUGCGCCUUGGGGGCCA; targeting domain within dual guide RNA, chemistry not given here, further chemistry not given here; listed as Homo sapiens) | 10%
